Assay results taken from patent publication US8987211B2, “Therapeutic peptides and use thereof against huntington's disease” (Centre National de la Recherche Scientifique (CNRS), priority 2011, dated 2015).
Entries after “also recorded” stand apart in the source; their conditions may differ. No end group written: not given here.

Assays:
[1] = test system: GFP-P1 (first 98 aa with no polyQ domain); experiment: Co-immunoprecipitation in cotransfected HeLa cells; assay type: binding, human; settings: Cherry-pep42, GFP-P1, anti-GFP immunoprecipitation
Experimental: (§1) This assumption was tested by co-immunoprecipitation experiments using HeLa cells cotransfected by GFP-hHtt^171aa-136Q or by GFP-P1 (corresponding to the first 98 aa with no polyQ domain), in the presence of Cherry-pep42. A G/A-agarose protein resin binding an anti-GFP was used to immunoprecipitate the GFP-hHtt^171aa-136Q protein or the GFP-P1 peptide and to co-immunoprecipitate the Cherry-pep42, visualised by an anti-cherry by western blot.

[2] = test system: GFP-hHtt171aa-136Q; experiment: Co-immunoprecipitation in cotransfected HeLa cells; assay type: binding, human; settings: Cherry-pep42, anti-GFP immunoprecipitation, anti-cherry western blot
Experimental: as §1

[3] = test system: polyQ-hHtt protein, N17 region (the first 17 aa); experiment: Interference with nucleation step of polyQ-hHtt aggregation; parameters: species or system human; settings: summary statement, no example
[4] = test system: hHtt548aa-128Q protein; experiment: Axonal transport, fixed larvae (OK6-Gal4; UAS-NPY-GFP); assay type: in vivo, Drosophila
Experimental: (§2) To test the effect of polyQ-hHtt on axonal transport, the fate of vesicles expressing Neuropeptide Y (NPY) labelled with GFP (NPY-GFP) was monitored, either after dissection and fixation of the larvae, or by real-time microscopy in order to monitor vesicular transport in the motor neurons.
The nervous system of OK6-Gal4 larvae which express vesicles containing NPY-GFP (OK6-Gal4; UAS-NPY-GFP) was dissected and fixed as previously in 3.7% PFA. Incubations with the antibodies and washing are carried out in PBS, 0.3% Triton. Expression of normal Htt^548aa-0Q has no effect on the vesicles which remain numerous and evenly distributed along the axon. Normal Htt, detected by an anti-Htt HU-4C8 antibody (Chemicon, 1:750), lies along the axon and cannot be detected at the neuromuscular junctions (NMJs). Expression of the hHtt^548aa-128Q protein leads to the formation of aggregates along the axons and to abnormal accumulation of the protein at the NMJs. We observe a decrease in the total number of vesicles and their accumulation, especially at the aggregates. In all cases, the vesicles reach the NMJs.

[5] = test system: polyQ-hHtt; experiment: Viability and survival of adult flies affected by polyQ-hHtt; assay type: in vivo, Drosophila; settings: summary statement, no example
[6] = test system: OK6-Gal4; UAS-NPY-GFP; UAS-hHtt548aa-128Q larvae; experiment: Larval locomotion; assay type: in vivo, Drosophila; settings: larvae expressing hHtt548aa-128Q
[7] = test system: GFP-hHtt171aa-136Q aggregates; experiment: Quantification of aggregates by filtration, HeLa cells; assay type: cell-based, human; settings: cellulose acetate membrane, anti-GFP, FIG. 5B
Experimental: Protein extracts were obtained according to (Sittler et al., Mol Cell. 1998) with the following modifications: after transfection, the cell pellets are treated with DNase and resuspended in 150 μl 1% SDS and 50 mM DTT in PBS. The samples are boiled for 5 minutes. Two 150 μL aliquots corresponding to independent experiments were filtered together and each point was reproduced 3 times.
The samples were filtered on a cellulose acetate membrane ([…], Schleicher and Schuell) using a Biorad Dot-blot apparatus. The membranes were then subjected to immunodetection with an antibody, either anti-GFP polyclonal for the HeLa cells (Invitrogen, 1:5000) or anti-HA polyclonal for the salivary glands (SC805, Santa-Cruz, 1:200) in order to visualise the aggregates The aggregates are then detected using a secondary anti-rabbit antibody coupled with HRP (horseradish peroxidase, Jackson 1:50 000). The immunoreagent spots are detected with an […] substrate (ECL, Roche) and the quantifications carried out using Image J (see FIG. 5B).

[8] = test system: HA-hHtt171aa-136Q protein; experiment: polyQ-hHtt aggregation in Drosophila salivary glands (MS1096-Gal4 driver, immunolabelling); assay type: in vivo; settings: third instar larvae, anti-HA immunolabel
Text: The pep4 and pep42 peptides identified as inhibitors of polyQ-hHtt aggregation in HeLa cells were cloned using the Gateway technique in Drosophila pUASt expression vectors, allowing the expression of N-terminal 6Myc- or GFP-tagged peptides.
Transgenic flies expressing these peptides were constructed by injecting vectors in Drosophila embryos. The UAS/Gal4 system (Brand and Perrimon, Development 1993) was used to express these peptides at specific times and in specific tissues, in the presence of an HA- (hemagglutinin) tagged UAS-polyQ-hHtt vector.
The MS1096-Gal4 driver was used to express the HA-hHtt^171aa-136Q protein (detected by an anti-HA antibody) in the salivary glands, in the absence or presence of the GFP-pep42 peptide. […] Salivary glands from dissected third instar larvae were immunolabelled. The glands are fixed for 20 minutes in PBS with 3.7% paraformaldehyde (PFA) and 0.1% Triton then washed in PBS/0.1% Triton. The glands were incubated with the antibodies (anti-HA, then Cy3 conjugate antibody) with 1% BSA.

[9] = test system: hHtt548aa-128Q protein; experiment: Axonal vesicular transport by real-time microscopy in larva motor neurons; assay type: in vivo, Drosophila; settings: segments A3 to A4
Experimental: as §2
For this examination, OK6-Gal4; UAS-NPY-GFP larvae were anaesthetised with ether for 2 minutes and positioned with the ventral side upwards between slide and slip cover in polymerised 1% agarose, for direct visualisation using fluorescence microscopy with a 63× objective, to monitor the movement of the vesicles between segments A3 and A4. A film of 100 photographs is taken every 280 ms. For each film, 20 vesicles were analysed with Image J (manual vesicle tracking plugin developed by F. Cordelières, Institut Curie, Orsay, France). Vesicles with an instantaneous speed of less than 0.01 μm/s are defined as having paused. The mean speed is calculated as being the total distance traveled irrespective of the vesicle direction (anterograde or retrograde) divided by the total estimated time during which the vesicle is monitored. While expression of the hHtt^548aa-128Q protein leads to an increase in the pause time of vesicles and reduces their speed, the presence of pep42 rescues both the vesicle pause time and speed.

[10] = test system: UAS-hHtt67aa-98Q or UAS-hHtt548aa-128Q; experiment: Eye depigmentation and degeneration in flies expressing polyQ-hHtt (gmr-Gal4); assay type: in vivo, Drosophila; settings: 10-day old females, 29° C., polyQ-hHtt (67aa or 548aa)
Experimental: (§3) The eye depigmentation and degeneration phenotypes are analysed in 10-day old females expressing either UAS-hHtt^67aa-98Q or UAS-hHtt^548aa-128Q controlled by the gmr-Gal4 driver, after transfer at 29° C. from the embryogenesis stage (see FIG. 6b, to be compared with the wild flies shown on FIG. 6a). Flies expressing other genes involved in polyQ diseases (UAS-SCA1-polyQ or UAS-SCA3-polyQ) were also analysed (FIG. 6d).

[11] = test system: GFP-hHtt171aa-136Q (GFP-polyQ-hHtt protein); experiment: Cotransfection in HeLa cells, polyQ-hHtt aggregation visualised by anti-GFP immunodetection; assay type: cell-based, human; settings: cotransfection of equivalent quantities of vectors, Myc- or Cherry-tagged peptide
Experimental: Various peptides contained in the 548aa of the human Huntingtin N-terminal fragment have been cloned by Gateway in expression vectors in pcDNA type cultured HeLa cells. Each peptide was tagged either by Myc or by Cherry at its N-terminal end. These various peptides were tested by cotransfection in HeLa cells in the presence of a pcDNA vector expressing a GFP-polyQ-hHtt protein (see FIG. 5). In these experiments, the polyQ-hHtt protein tested corresponded to an hHtt protein covering 171 aa and containing an extended polyQ with a GFP tag at its N-ter end (GFP-hHtt^171aa-136Q). The HeLa cells were cultured in 6-well boxes and transfected by 1.5 μg of total DNA, using JetPei (Qbiogene) reagent. Equivalent quantities of expression vectors (polyQ protein and peptides) are used for the cotransfections. When necessary, pBluescript is used to balance the quantity of DNA. Aggregation of GFP-hHtt^171aa-136Q is visualised by immunodetection with an anti-GFP antibody (see FIG. 5). This protein forms cytoplasmic aggregates (see FIG. 5A).

[12] = target: T1, first 17 amino acids before the polyQ domain of the human Htt protein (Homo sapiens, UniProt P42858); experiment: Co-immunoprecipitation with first 17 amino acids of Htt; assay type: binding
T1 construct: using the first 17 amino acids before the polyQ domain of the human Htt protein; expressed in transfected cells; host or cells: HeLa cells (inferred from 'the same experiments')
Experimental: as §1

[13] = test system: UAS-SCA1-polyQ or UAS-SCA3-polyQ; experiment: Eye degeneration in flies expressing other polyQ disease genes; assay type: in vivo, Drosophila
Experimental: as §3

[14] = test system: GFP-polyQ-hHtt (Q136); experiment: Activity in HeLa cells, aggregate percentage by GFP signal; assay type: cell-based, human; settings: increasing quantity of synthetic peptide added to the culture medium, FIG. 7c
Text: HeLa cells are transfected with: • 1—GFP-polyQ-hHtt (Q136), • 2—GFP-polyQ-hHtt co-transfected with a vector expressing Pep42-TAT, or • 3—GFP-polyQ-hHtt in the presence of an increasing quantity of Pep42-TAT synthetic peptide added to the culture medium.
FIG. 7c corresponds to the aggregate percentage identified by the GFP signal related to the polyQ-hHtt chain, in the presence of an increasing quantity of fusion peptide.

Sequence of hHtt548aa-128Q protein (P42858 with tags, fused parts or gaps limits assumed): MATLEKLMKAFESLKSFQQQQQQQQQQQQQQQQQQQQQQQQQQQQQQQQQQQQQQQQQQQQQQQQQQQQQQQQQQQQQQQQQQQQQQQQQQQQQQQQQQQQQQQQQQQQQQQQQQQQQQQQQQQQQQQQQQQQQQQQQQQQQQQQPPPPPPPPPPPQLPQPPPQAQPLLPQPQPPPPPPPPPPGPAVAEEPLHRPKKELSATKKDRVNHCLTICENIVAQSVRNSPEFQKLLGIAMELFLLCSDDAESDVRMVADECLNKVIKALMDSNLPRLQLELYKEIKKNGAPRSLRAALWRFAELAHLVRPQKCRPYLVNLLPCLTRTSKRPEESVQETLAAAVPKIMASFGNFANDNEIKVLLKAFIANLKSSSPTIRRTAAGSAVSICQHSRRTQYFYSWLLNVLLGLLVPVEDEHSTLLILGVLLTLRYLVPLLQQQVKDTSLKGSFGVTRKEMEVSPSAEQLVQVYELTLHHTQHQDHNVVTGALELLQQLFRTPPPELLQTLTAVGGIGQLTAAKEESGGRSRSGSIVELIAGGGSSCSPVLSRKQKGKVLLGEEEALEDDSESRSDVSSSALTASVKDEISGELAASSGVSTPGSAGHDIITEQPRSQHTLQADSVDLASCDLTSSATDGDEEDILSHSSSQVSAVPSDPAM
Sequence of GFP-hHtt171aa-136Q (GFP-polyQ-hHtt protein) (P42858 with tags, fused parts or gaps limits assumed): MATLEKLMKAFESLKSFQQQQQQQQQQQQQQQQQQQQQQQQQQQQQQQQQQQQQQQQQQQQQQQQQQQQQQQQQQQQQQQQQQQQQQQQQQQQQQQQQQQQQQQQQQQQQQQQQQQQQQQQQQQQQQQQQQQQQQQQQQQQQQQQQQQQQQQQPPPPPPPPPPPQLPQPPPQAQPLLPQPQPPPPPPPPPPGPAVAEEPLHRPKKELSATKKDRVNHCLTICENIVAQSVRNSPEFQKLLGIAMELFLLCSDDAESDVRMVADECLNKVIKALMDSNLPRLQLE
Sequence of GFP-hHtt171aa-136Q aggregates (P42858 with tags, fused parts or gaps limits assumed): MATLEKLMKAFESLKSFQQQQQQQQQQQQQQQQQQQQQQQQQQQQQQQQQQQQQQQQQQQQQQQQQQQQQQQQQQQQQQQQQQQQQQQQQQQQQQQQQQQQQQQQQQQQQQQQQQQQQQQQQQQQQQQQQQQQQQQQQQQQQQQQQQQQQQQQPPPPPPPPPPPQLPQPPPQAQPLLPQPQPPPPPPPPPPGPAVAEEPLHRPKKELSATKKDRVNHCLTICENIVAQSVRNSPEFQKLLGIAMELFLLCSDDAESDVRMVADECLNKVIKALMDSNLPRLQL
Sequence of GFP-P1 (first 98 aa with no polyQ domain) (P42858 with tags, fused parts or gaps DEL18-38 limits assumed): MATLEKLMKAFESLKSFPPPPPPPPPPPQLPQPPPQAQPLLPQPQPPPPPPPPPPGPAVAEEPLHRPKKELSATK

| interaction with first 17 amino acids of Htt (co-immunoprecipitation) [12] | Molecule | interaction with N-terminal fragment lacking polyQ (co-immunoprecipitation) [1] | interaction with Huntingtin N-terminal fragment (co-immunoprecipitation) [2] | first step of aggregation (nucleation) [3] | accumulation of polyQ-hHtt at the neuromuscular junctions (NMJs) [4] | distribution of NPY-GFP vesicles along the axons [4] | size of the polyQ-hHtt aggregates along axons [4] | viability and survival of adult flies [5] | mobility of the larvae [6] | quantification of aggregates by filtration [7] | aggregation of polyQ-hHtt in salivary glands [8] | vesicle mean speed [9] | vesicle pause time [9] | eye depigmentation and degeneration phenotype [10] | aggregation of GFP-hHtt171aa-136Q (polyQ-hHtt) in HeLa cells [11] | eye degeneration phenotype, other polyQ genes [13] | aggregate percentage identified by the GFP signal [14] |
| --- | --- | --- | --- | --- | --- | --- | --- | --- | --- | --- | --- | --- | --- | --- | --- | --- | --- |
| successfully repeated | AASSGVSTPGSAGHDIITEQPRS (not fully specified) [pep42, 23 aa peptide contained in pep4, positions 480 to 502 of wild-type hHtt; tested Myc-, Cherry- or GFP-tagged] | this interaction does not require the presence of the polyQ domain | interacts directly with the N-terminal fragment of Huntingtin | interferes with the first step of aggregation | non-accumulation of polyQ-hHtt at the NMJs | better distribution of the vesicles along the axons | reduction in the size of the polyQ-hHtt aggregates | capable of rescuing | completely rescued | confirmed by quantification | absence of aggregates | rescues | rescues | normal eyes | no longer forms aggregates | Only flies expressing polyQ-hHtt (67aa or 548aa) have normal eyes |  |
|  | AASSGVSTPGSAGHDIITEQPRSGGYGRKKRRQRRR (Pep42-TAT) [fusion peptide of Pep42 and TAT with 2 glycines inserted between] |  |  |  |  |  |  |  |  |  |  |  |  |  |  |  | decreases significantly; also recorded: protective activity of the fusion peptide is conserved |
|  | QQLFRTPPPELLQTLTAVGGIGQLTAAKEESGGRSRSGSIVELIAGGG SSCSPVLSRKQKGKVLLGEEEALEDDSESRSDVSSSALTASVKDEISGELAAS SGVSTPGSAGHDIITEQPRSQHTLQADSVDLASCDLTSSATDGDEEDILSHSSS QVSAVPSDPAM (protein, Pep4) QQLFRTPPPELLQTLTAVGGIGQLTAAKEESGGRSRSGSIVELIAGGGSSCSPVLSRKQKGKVLLGEEEALEDDSESRSDVSSSALTASVKDEISGELAASSGVSTPGSAGHDIITEQPRSQHTLQADSVDLASCDLTSSATDGDEEDILSHSSSQVSAVPSDPAM |  |  |  |  |  |  |  |  | confirmed by quantification | absence of aggregates |  |  |  | proved to be active; also recorded: inhibiting effect of polyQ-hHtt aggregation |  |  |
